Assay results from patent US11524966B1 (Valo Early Discovery, Inc., priority 2017, dated 2022).

target: T1, USP28 (His-tagged USP28-FL-mammalian) (Homo sapiens, UniProt Q96RU2); assay: Ubiquitin-Rhodamine 110 Assay for USP28 Activity, Example A-1(a); type: biochemical; settings: Ubiquitin-Rhodamine 110 assay, Example A-1(a); read-out: USP28 A-1(a) IC50 range
T1 construct: Expression of USP28 (1-1077)-TEV-6*His (pTT5 vector); made in house; host or cells: Expi293f cells (pTT5 vector)
T1 sequence (Q96RU2 1-1077): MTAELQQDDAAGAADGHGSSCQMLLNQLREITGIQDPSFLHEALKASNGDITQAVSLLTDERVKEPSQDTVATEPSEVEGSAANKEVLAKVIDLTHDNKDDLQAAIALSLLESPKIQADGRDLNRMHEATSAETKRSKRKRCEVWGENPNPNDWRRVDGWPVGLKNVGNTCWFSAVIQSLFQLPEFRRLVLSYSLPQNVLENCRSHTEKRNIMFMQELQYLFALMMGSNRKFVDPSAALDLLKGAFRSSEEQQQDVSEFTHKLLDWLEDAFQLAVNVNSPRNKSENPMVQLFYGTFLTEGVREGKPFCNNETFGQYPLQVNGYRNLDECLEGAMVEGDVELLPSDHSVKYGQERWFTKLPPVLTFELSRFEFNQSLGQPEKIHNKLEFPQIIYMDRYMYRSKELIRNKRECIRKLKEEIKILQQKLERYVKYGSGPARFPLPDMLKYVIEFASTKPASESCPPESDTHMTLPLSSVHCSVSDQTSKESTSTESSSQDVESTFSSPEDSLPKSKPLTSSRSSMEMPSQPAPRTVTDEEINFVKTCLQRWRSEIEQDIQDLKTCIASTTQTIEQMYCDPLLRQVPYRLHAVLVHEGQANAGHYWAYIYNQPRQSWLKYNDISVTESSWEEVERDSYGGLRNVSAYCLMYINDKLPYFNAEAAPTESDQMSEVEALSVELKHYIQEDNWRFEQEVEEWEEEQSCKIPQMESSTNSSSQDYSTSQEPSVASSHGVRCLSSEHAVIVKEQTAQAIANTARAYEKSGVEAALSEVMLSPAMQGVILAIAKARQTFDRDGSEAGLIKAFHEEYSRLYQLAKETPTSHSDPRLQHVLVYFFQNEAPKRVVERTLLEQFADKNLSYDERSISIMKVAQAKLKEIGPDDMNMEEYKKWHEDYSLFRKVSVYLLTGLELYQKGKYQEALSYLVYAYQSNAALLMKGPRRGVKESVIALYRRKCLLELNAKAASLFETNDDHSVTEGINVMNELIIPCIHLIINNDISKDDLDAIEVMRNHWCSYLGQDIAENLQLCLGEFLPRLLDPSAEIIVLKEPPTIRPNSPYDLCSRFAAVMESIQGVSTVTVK
Outline: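 Full-length His-tagged human USP28 (1-1077, Expi293f-expressed), […], with 25 nM Ub-Rh110 (<<Km) in pH 8.0 Tris buffer with BME, BGG, Triton X-100. 10-point dilutions (25 μM-1.3 nM), 45 min at room temperature, citric acid stop, fluorescence 485/535 nm; IC50 by 4-parameter fit.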

Row | SMILES | IC50 [nM]
1 | Cc1ccc2c(N)c(C(=O)N[C@H]3COc4cc(N5C[C@H](N)[C@]6(CCCO6)C5)ccc4C3)sc2n1 [Example 307, 3-amino-N-[(3R)-7-[(5S,9S)-9-amino-1-oxa-7-azaspiro[4.4]nonan-7-yl]-3,4-dihydro-2H-1-benzopyran-3-yl]-6-methylthieno[2,3-b]pyridine-2-carboxamide] | 1 to 50
2 | Cc1ccc2c(N)c(C(=O)N[C@H]3COc4cc(N5C[C@@H](N)[C@@]6(CCCO6)C5)ccc4C3)sc2n1 [Example 308, 3-amino-N-[(3R)-7-[(5R,9R)-9-amino-1-oxa-7-azaspiro[4.4]nonan-7-yl]-3,4-dihydro-2H-1-benzopyran-3-yl]-6-methylthieno[2,3-b]pyridine-2-carboxamide] | 50 to 200
3 | Cc1ccc2c(N)c(C(=O)N[C@H]3COc4cc(N5C[C@@H](N)[C@]6(CCCO6)C5)ccc4C3)sc2n1 [Example 309, 3-amino-N-[(3R)-7-[(5S,9R)-9-amino-1-oxa-7-azaspiro[4.4]nonan-7-yl]-3,4-dihydro-2H-1-benzopyran-3-yl]-6-methylthieno[2,3-b]pyridine-2-carboxamide] | 1 to 50
4 | Cc1ccc2c(N)c(C(=O)N[C@H]3COc4cc(N5C[C@H](N)[C@@]6(CCCO6)C5)ccc4C3)sc2n1 [Example 310, 3-amino-N-[(3R)-7-[(5R,9S)-9-amino-1-oxa-7-azaspiro[4.4]nonan-7-yl]-3,4-dihydro-2H-1-benzopyran-3-yl]-6-methylthieno[2,3-b]pyridine-2-carboxamide] | 1 to 50
5 | CN[C@H]1CN(c2ccc3c(n2)CC[C@H](NC(=O)c2sc4nc(C)ccc4c2N)C3)C[C@@H]1OC [Example 311, 3-amino-N-[(6S)-2-[(3S,4S)-3-methoxy-4-(methylamino)pyrrolidin-1-yl]-5,6,7,8-tetrahydroquinolin-6-yl]-6-methylthieno[2,3-b]pyridine-2-carboxamide] | 50 to 200
6 | CN[C@H]1CN(c2ccc3c(n2)CC[C@H](NC(=O)c2sc4nc(C)cc(C)c4c2N)C3)C[C@@H]1OC [Example 312, 3-amino-N-[(6S)-2-[(3S,4S)-3-methoxy-4-(methylamino)pyrrolidin-1-yl]-5,6,7,8-tetrahydroquinolin-6-yl]-4,6-dimethylthieno[2,3-b]pyridine-2-carboxamide] | 50 to 200
7 | CCOC[C@@H]1CN(c2ccc3c(c2)OC[C@H](NC(=O)c2sc4nc(C)ccc4c2N)C3)C[C@@H]1N [Example 313, 3-amino-N-[(3R)-7-[(3R,4R)-3-amino-4-(ethoxymethyl)pyrrolidin-1-yl]-3,4-dihydro-2H-1-benzopyran-3-yl]-6-methylthieno[2,3-b]pyridine-2-carboxamide] | 1 to 50
8 | CCOC[C@H]1CN(c2ccc3c(c2)OC[C@H](NC(=O)c2sc4nc(C)ccc4c2N)C3)C[C@H]1N [Example 314, 3-amino-N-[(3R)-7-[(3S,4S)-3-amino-4-(ethoxymethyl)pyrrolidin-1-yl]-3,4-dihydro-2H-1-benzopyran-3-yl]-6-methylthieno[2,3-b]pyridine-2-carboxamide] | 1 to 50
9 | CO[C@H]1CCN(c2ccc3c(c2)OC[C@H](NC(=O)c2sc4nc(C)cc(C)c4c2N)C3)C[C@@H]1N [Example 317, 3-amino-N-[(3R)-7-[(3S,4S)-3-amino-4-methoxypiperidin-1-yl]-3,4-dihydro-2H-1-benzopyran-3-yl]-4,6-dimethylthieno[2,3-b]pyridine-2-carboxamide] | 1 to 50
10 | CO[C@@H]1CCN(c2ccc3c(c2)OC[C@H](NC(=O)c2sc4nc(C)cc(C)c4c2N)C3)C[C@H]1N [Example 318, 3-amino-N-[(3R)-7-[(3R,4R)-3-amino-4-methoxypiperidin-1-yl]-3,4-dihydro-2H-1-benzopyran-3-yl]-4,6-dimethylthieno[2,3-b]pyridine-2-carboxamide] | 1 to 50
11 | Cc1cnc2c(N)c(C(=O)N[C@H]3CCc4cc(N5C[C@H](OC(C)C)[C@@H](N)C5)ccc4C3)sc2n1 [Example 319, 7-amino-N-[(2S)-6-[(3S,4S)-3-amino-4-(propan-2-yloxy)pyrrolidin-1-yl]-1,2,3,4-tetrahydronaphthalen-2-yl]-3-methylthieno[2,3-b]pyrazine-6-carboxamide] | 50 to 200
12 | Cc1ccc2c(N)c(C(=O)N[C@H]3CCc4nc(N5C[C@H](OC(C)C)[C@@H](N)C5)ccc4C3)sc2n1 [Example 320] | 50 to 200
13 | Cc1ccc2c(N)c(C(=O)N[C@H]3CCc4nc(N5C[C@H](N)[C@H](OC(C)C)C5)ccc4C3)sc2n1 [Example 321, 3-amino-N-[(6S)-2-[(3S,4R)-3-amino-4-(propan-2-yloxy)pyrrolidin-1-yl]-5,6,7,8-tetrahydroquinolin-6-yl]-6-methylthieno[2,3-b]pyridine-2-carboxamide] | 200 to 2000
14 | Cc1ccc2c(N)c(C(=O)N[C@H]3CCc4nc(N5C[C@@H](N)[C@@H](OC(C)C)C5)ccc4C3)sc2n1 [Example 322, 3-amino-N-[(6S)-2-[(3R,4S)-3-amino-4-(propan-2-yloxy)pyrrolidin-1-yl]-5,6,7,8-tetrahydroquinolin-6-yl]-6-methylthieno[2,3-b]pyridine-2-carboxamide] | 200 to 2000
15 | CCO[C@H]1CN(c2ccc3c(c2)OC[C@H](NC(=O)c2sc4nc(C)cc(C)c4c2N)C3)C[C@H]1N [Example 324, 3-amino-N-[(3R)-7-[(3R,4S)-3-amino-4-ethoxypyrrolidin-1-yl]-3,4-dihydro-2H-1-benzopyran-3-yl]-4,6-dimethylthieno[2,3-b]pyridine-2-carboxamide] | 50 to 200
16 | CO[C@@]1(C)CN(c2ccc3c(n2)OC[C@H](NC(=O)c2sc4nc(C)ccc4c2N)C3)C[C@@H]1N [Example 325, 3-amino-N-[(3R)-7-[(3S,4S)-4-amino-3-methoxy-3-methylpyrrolidin-1-yl]-2H,3H,4H-pyrano[2,3-b]pyridin-3-yl]-6-methylthieno[2,3-b]pyridine-2-carboxamide] | 50 to 200
17 | CO[C@]1(C)CN(c2ccc3c(n2)OC[C@H](NC(=O)c2sc4nc(C)ccc4c2N)C3)C[C@H]1N [Example 326, 3-amino-N-[(3R)-7-[(3R,4R)-4-amino-3-methoxy-3-methylpyrrolidin-1-yl]-2H,3H,4H-pyrano[2,3-b]pyridin-3-yl]-6-methylthieno[2,3-b]pyridine-2-carboxamide] | 50 to 200
18 | COC[C@H]1CN(c2ccc3c(n2)CC[C@H](NC(=O)c2sc4nc(C)ccc4c2N)C3)C[C@@H]1N [Example 327, 3-amino-N-[(6S)-2-[(3R,4S)-3-amino-4-(methoxymethyl)pyrrolidin-1-yl]-5,6,7,8-tetrahydroquinolin-6-yl]-6-methylthieno[2,3-b]pyridine-2-carboxamide] | 50 to 200
19 | COC[C@@H]1CN(c2ccc3c(n2)CC[C@H](NC(=O)c2sc4nc(C)ccc4c2N)C3)C[C@H]1N [Example 328, 3-amino-N-[(6S)-2-[(3S,4R)-3-amino-4-(methoxymethyl)pyrrolidin-1-yl]-5,6,7,8-tetrahydroquinolin-6-yl]-6-methylthieno[2,3-b]pyridine-2-carboxamide] | 200 to 2000
20 | Cc1ccc2c(N)c(C(=O)N[C@H]3CCc4nc(N5C[C@H]6NCCC(F)(F)[C@H]6C5)ccc4C3)sc2n1 [Example 329, N-[(6S)-2-[(4aS,7aS)-4,4-difluoro-octahydro-1H-pyrrolo[3,4-b]pyridin-6-yl]-5,6,7,8-tetrahydroquinolin-6-yl]-3-amino-6-methylthieno[2,3-b]pyridine-2-carboxamide] | 50 to 200
21 | Cc1ccc2c(N)c(C(=O)N[C@H]3CCc4nc(N5C[C@@H]6NCCC(F)(F)[C@@H]6C5)ccc4C3)sc2n1 [Example 330, N-[(6S)-2-[(4aR,7aR)-4,4-difluoro-octahydro-1H-pyrrolo[3,4-b]pyridin-6-yl]-5,6,7,8-tetrahydroquinolin-6-yl]-3-amino-6-methylthieno[2,3-b]pyridine-2-carboxamide] | 50 to 200
22 | CN[C@H]1CN(c2ccc3c(n2)CC[C@H](NC(=O)c2sc4nc(C)ccc4c2N)C3)C[C@@]1(C)O [Example 331, 3-amino-N-[(6S)-2-[(3R,4S)-3-hydroxy-3-methyl-4-(methylamino)pyrrolidin-1-yl]-5,6,7,8-tetrahydroquinolin-6-yl]-6-methylthieno[2,3-b]pyridine-2-carboxamide] | 50 to 200
